# Experimental data from patent US5905090A, “Analogues of the active metabolite of leflunomide” (Italfarmaco S.p.A., priority 1998, dated 1999).
# Legend:
# CD25 = assay: Inhibition of lymphocyte activation antigens expression: CD25 (OKT3-stimulated PBMC, flow cytometry); format: cell-based; conditions: human PBMC, 24 hr
# Experimental: (§1) Inhibition of lymphocyte activation antigens expression.
# (§2) Human peripheral blood mononuclear cells (PBMC) from healthy donors were separated by Ficoll-Hypaque density-gradient centrifugation. The cells recovered were suspended in culture medium (RPMI 1640 supplemented with 10% foetal bovine serum, 2 mM L-glutamine, 100 IU/ml penicillin and 100 μg/ml streptomycin).
# (§3) PBMC, suspended at a density of 10^6 cells/ml in culture medium, were incubated in 24-well plates (Costar, Cambridge, Mass.) with the tested compounds and, 30 min later, stimulated with optimal concentration of the monoclonal antibodies OKT3 (Ortho Diagnostic Inc., Raritan, N.J.) for 24 hr at 37° C. and under 5% CO2. At the end of incubation, cells were washed twice with PBS containing 2% human serum (Irvine Scientific, Irvine, Calif.) and then incubated with fluorescein isothiocyanate (FITC)-conjugated monoclonal antibodies (Mab) for 30 min on ice. Cells were then washed as above and fluorescence analysis was performed by flow-cytometry on a FACScan (Becton-Dickinson, Mountain View, Calif.). The Mabs used were anti-Leu5b (CD2), anti-Interleukin-2 receptor (CD25) and anti transferrin receptor (CD71). Fluorescence background was determined by incubating the cells with FITC-conjugated mouse IgG of the relevant isotype. Forward- and right-angle scatter were set in order to include lymphocytes and lymphoblasts. The results, expressed as percentage of inhibition of mean fluorescence (MF), were calculated as follows: [formula]
# CD71 = assay: Inhibition of lymphocyte activation antigens expression: CD71 (OKT3-stimulated PBMC, flow cytometry); format: cell-based; conditions: human PBMC, 24 hr
# Experimental: as §1, §2, §3
# [1] = test system: murine splenocytes (BALB/c and DBA/2 mice); assay: Mixed lymphocyte reaction (MLR), bi-directional, [3H]-thymidine proliferation; format: cell-based, murine (BALB/c and DBA/2 mice); conditions: Mus musculus, Splenocyte, 96 hours
# Experimental: Mixed lymphocyte reaction (MLR).
# Bi-directional MLR was carried out using murine cells. Splenocytes were prepared from BALB/c and DBA/2 mice (18-20 g) Charles River, Calco, Italy). Briefly, single cell suspensions were isolated from spleen by Ficoll-Hypaque (biochrom, Berlin, Germany) density gradient centrifugation. 5×10^4 splenocytes from each preparation was cultured for 96 hours in triplicate in 96-well round-bottom plates (Nunc, Roskilde, Denmark), in the absence or presence of serial dilutions of the tested compounds. All compounds were dissolved in dimethyl sulfoxide (DMSO) to a final 20 mM concentration and then diluted into the culture medium used for the cell assay. To take into account a possible interference from DMSO, each experiment included a control in which the DMSO concentration was made equal to those of compound-treated cultures. Culture medium used was RPMI 1640 (Biochrom, Berlin, Germany), supplemented with 5% foetal bovine serum (Hyclone Laboratories Inc., Logan, Utah), 50 μm 2-mercaptoethanol, 2 mM L-glutamine, 0.1 mM non-essential amino acids, 1 mM sodium pyruvate, 100 IU/ml penicillin, and 100 μg/ml streptomycin. During the last 18 hours of culture, cells were pulsed with 1 μCi of [^3 H]-thymidine (Amersham, UK) and then harvested onto glass fiber filters by means of a cell harvester. Radioacivity, proportional to proliferation, was measured with a β-counter.
# CD2 = assay: Inhibition of lymphocyte activation antigens expression: CD2 (OKT3-stimulated PBMC, flow cytometry); format: cell-based; conditions: human PBMC, 24 hr
# Experimental: as §1, §2, §3
# [2] = test system: adjuvant arthritis (complete Freund's adjuvant); assay: Adjuvant arthritis in the rat; format: in vivo, rat (male Lewis); conditions: p.o. daily
# [3] = test system: antigen-induced paw edema (KLH-immunised BALB/c mice); assay: Antigen-induced paw edema in the mouse; format: in vivo, mouse (female BALB/c); conditions: daily day 0 to day 13, 8 hours after challenge
# Experimental: Antigen-induced paw edema in the mouse.
# Groups of 4-8 female BALB/c mice (20-22 g; Charles River, Calco, Italy) were immunised at days 0 and 7 with two s.c. injections, of keyhole limpet hemocyanin (KLH, 100 μg/mouse; Sigma Chemicals, S. Louis, Mo.) emulsified in 0.2 ml complete Freund's adjuvant (CFA, Sigma Chemicals, S. Louis, Mo.). Non-immunised mice (Control) were treated with CFA alone. On day 14, immunised mice were challenged in the hind footpad with 20 μg KLH suspended in physiological solution. Eight hours after antigen challenge the edema was quantified measuring the dorsal-ventral thickness of the footpad with a scientific micrometer (Borletti, Italy). To evaluate their immunosuppressive activity, the compounds were administered daily from day 0 to day 13.
SMILES,IC50 (CD25) [µM],IC50 (CD71) [µM],IC50 (CD2) [µM],IC50 [1] [µM],Inhibition (%) of arthritis score ([2]; Day 14) [%],"Arthritis score ([2]; Day 14, vehicle score 3.6 ± 0.5)",Inhibition (%) of arthritis score ([2]; Day 17) [%],"Arthritis score ([2]; Day 17, vehicle score 4.8 ± 0.4)",Inhibition (%) of arthritis score ([2]; Day 21) [%],"Arthritis score ([2]; Day 21, vehicle score 4.8 ± 0.6)",Percentage of inhibition of edema formation ([3]; 10 mg/Kg i.p.) [%],Percentage of inhibition of edema formation ([3]; 10 mg/Kg p.o.) [%]
"CC(O)=C(C(=O)Nc1ccc(C(F)(F)F)cc1)C(=O)Nc1ccc(C(F)(F)F)cc1 [Example 1, N-(4-trifluoromethylphenyl)-2-(4-trifluoromethylphenylcarbamoyl)-3-hydroxybut-2-enamide]",18.4,18.8,15.3,11.9 ± 0.1,–,–,–,–,–,–,–,–
O=C1CCCC(O)=C1C(=O)Nc1ccc(C(F)(F)F)cc1 [Example 4],> 100,> 100,95.4,45.9 ± 29.5,–,–,–,–,–,–,–,–
"Cc1oncc1C(=O)Nc1ccc(C(F)(F)F)cc1 [Leflunomide, 5-methyl-N-(4-trifluoromethylphenyl)isossazole-4-carboxamide]",130,> 100,126,9.6 ± 3.1,–,–,–,–,–,–,–,43

# These reach a lower IC50 (CD25). Values come first.
IC50 (CD25) [µM],IC50 (CD71) [µM],IC50 (CD2) [µM],SMILES,IC50 [1] [µM],Inhibition (%) of arthritis score ([2]; Day 14) [%],"Arthritis score ([2]; Day 14, vehicle score 3.6 ± 0.5)",Inhibition (%) of arthritis score ([2]; Day 17) [%],"Arthritis score ([2]; Day 17, vehicle score 4.8 ± 0.4)",Inhibition (%) of arthritis score ([2]; Day 21) [%],"Arthritis score ([2]; Day 21, vehicle score 4.8 ± 0.6)",Percentage of inhibition of edema formation ([3]; 10 mg/Kg i.p.) [%],Percentage of inhibition of edema formation ([3]; 10 mg/Kg p.o.) [%]
14.8,66.5,13.8,"O=C(Nc1ccc(C(F)(F)F)cc1)C1=C(O)COC1=O [Example 2, N-(4-trifluoromethylphenyl)-4-hydroxy-2-oxo-(5H)-furan-3-carboxamide]",3.4 ± 1.1,–,–,–,–,–,–,–,–
2.9,11,2.9,O=C1CCC(O)=C1C(=O)Nc1ccc(C(F)(F)F)cc1 [Example 3],1.25 ± 0.2,42,2.1 ± 0.1,46,2.6 ± 0.1,19,3.9 ± 0.2,–,–
2.4,4.4,3,"O=C(Nc1ccc(C(F)(F)F)cc1)c1ccccc1O [Example 5, N-(4-trifluoromethylphenyl)-2-hydroxy-benzamide]",1.65 ± 0.1,–,–,–,–,–,–,37,–
